Results from patent US8772480B2, “Inhibitors of PI3 kinase and/or mTOR” (priority 2009, dated 2014).

Tests used:
[1] = biological target: ProfilerPro Kinase Selectivity Assay Kit kinases (Homo sapiens, UniProt O00141); assay type: biochemical; conditions: SGK1; 1 μM compound concentration
[2] = biological target: ProfilerPro Kinase Selectivity Assay Kit kinases (Homo sapiens, UniProt O75582); assay type: biochemical; conditions: MSK1; 1 μM compound concentration
[3] = biological target: ProfilerPro Kinase Selectivity Assay Kit kinases (Homo sapiens, UniProt P00519); assay type: biochemical; conditions: ABL; 1 μM compound concentration
[4] = biological target: ProfilerPro Kinase Selectivity Assay Kit kinases (Homo sapiens, UniProt P04049); assay type: biochemical; conditions: cRAF; 1 μM compound concentration
[5] = biological target: ProfilerPro Kinase Selectivity Assay Kit kinases (Homo sapiens, UniProt P08581); assay type: biochemical; conditions: cMET; 1 μM compound concentration
[6] = biological target: ProfilerPro Kinase Selectivity Assay Kit kinases (Homo sapiens, UniProt P11362); assay type: biochemical; conditions: FGFR1; 1 μM compound concentration
[7] = biological target: ProfilerPro Kinase Selectivity Assay Kit kinases (Homo sapiens, UniProt P23443); assay type: biochemical; conditions: p70S6K; 1 μM compound concentration
[8] = biological target: ProfilerPro Kinase Selectivity Assay Kit kinases (Homo sapiens, UniProt P27361); assay type: biochemical; conditions: ERK1; 1 μM compound concentration
[9] = biological target: ProfilerPro Kinase Selectivity Assay Kit kinases (Homo sapiens, UniProt P49841); assay type: biochemical; conditions: GSK3 beta; 1 μM compound concentration
[10] = biological target: ProfilerPro Kinase Selectivity Assay Kit kinases (Homo sapiens, UniProt Q13976); assay type: biochemical; conditions: PKGa2; 1 μM compound concentration
[11] = biological target: ProfilerPro Kinase Selectivity Assay Kit kinases (Homo sapiens, UniProt Q16539); assay type: biochemical; conditions: p38 alpha; 1 μM compound concentration
[12] = biological target: ProfilerPro Kinase Selectivity Assay Kit kinases (Homo sapiens, UniProt Q9BZL6); assay type: biochemical; conditions: PKD2; 1 μM compound concentration
[13] = system: ProfilerPro Kinase Selectivity Assay Kit kinases; assay type: biochemical; conditions: 1 μM compound concentration
[14] = biological target: human mutant B-raf (HuBraf V600E) (Homo sapiens (Human), UniProt P15056, V600E); conditions: at 10 μM compound concentration; POC = 100 − percent inhibition
[15] = biological target: PI3Kα (Homo sapiens (Human), UniProt P42336); conditions: read-out: PI3Kα AlphaScreen ® Ki
[16] = system: phosphorylation of Akt at Serine 473 in U87 MG cells; assay: cells; conditions: Homo sapiens, U-87 MG, 2 h, read-out: U87Cell IC50, pAkt (Ser 473), U87 MG cells, two hours with compound

Chain of ProfilerPro Kinase Selectivity Assay Kit kinases (Homo sapiens, UniProt P11362) (P11362 22-822 limits assumed): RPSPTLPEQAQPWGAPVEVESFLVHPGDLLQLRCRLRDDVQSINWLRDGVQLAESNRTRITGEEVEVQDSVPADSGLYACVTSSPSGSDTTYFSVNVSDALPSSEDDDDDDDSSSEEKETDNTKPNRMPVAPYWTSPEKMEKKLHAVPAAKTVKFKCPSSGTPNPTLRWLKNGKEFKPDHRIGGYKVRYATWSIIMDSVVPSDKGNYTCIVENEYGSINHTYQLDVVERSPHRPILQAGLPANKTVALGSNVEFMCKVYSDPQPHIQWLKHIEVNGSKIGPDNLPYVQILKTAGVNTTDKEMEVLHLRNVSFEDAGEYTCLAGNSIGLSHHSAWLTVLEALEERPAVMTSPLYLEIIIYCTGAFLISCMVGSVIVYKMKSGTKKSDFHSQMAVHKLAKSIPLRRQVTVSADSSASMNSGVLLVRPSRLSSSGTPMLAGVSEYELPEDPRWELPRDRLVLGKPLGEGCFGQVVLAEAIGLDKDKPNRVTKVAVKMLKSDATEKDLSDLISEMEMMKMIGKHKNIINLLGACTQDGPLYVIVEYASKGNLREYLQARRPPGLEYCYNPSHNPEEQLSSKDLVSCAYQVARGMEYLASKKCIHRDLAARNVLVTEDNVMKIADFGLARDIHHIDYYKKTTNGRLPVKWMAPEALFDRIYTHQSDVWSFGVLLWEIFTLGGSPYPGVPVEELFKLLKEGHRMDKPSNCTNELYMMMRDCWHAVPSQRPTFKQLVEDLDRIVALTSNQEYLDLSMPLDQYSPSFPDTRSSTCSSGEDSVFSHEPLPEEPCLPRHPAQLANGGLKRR
Chain of human mutant B-raf (HuBraf V600E) (P15056 whole entry V600E): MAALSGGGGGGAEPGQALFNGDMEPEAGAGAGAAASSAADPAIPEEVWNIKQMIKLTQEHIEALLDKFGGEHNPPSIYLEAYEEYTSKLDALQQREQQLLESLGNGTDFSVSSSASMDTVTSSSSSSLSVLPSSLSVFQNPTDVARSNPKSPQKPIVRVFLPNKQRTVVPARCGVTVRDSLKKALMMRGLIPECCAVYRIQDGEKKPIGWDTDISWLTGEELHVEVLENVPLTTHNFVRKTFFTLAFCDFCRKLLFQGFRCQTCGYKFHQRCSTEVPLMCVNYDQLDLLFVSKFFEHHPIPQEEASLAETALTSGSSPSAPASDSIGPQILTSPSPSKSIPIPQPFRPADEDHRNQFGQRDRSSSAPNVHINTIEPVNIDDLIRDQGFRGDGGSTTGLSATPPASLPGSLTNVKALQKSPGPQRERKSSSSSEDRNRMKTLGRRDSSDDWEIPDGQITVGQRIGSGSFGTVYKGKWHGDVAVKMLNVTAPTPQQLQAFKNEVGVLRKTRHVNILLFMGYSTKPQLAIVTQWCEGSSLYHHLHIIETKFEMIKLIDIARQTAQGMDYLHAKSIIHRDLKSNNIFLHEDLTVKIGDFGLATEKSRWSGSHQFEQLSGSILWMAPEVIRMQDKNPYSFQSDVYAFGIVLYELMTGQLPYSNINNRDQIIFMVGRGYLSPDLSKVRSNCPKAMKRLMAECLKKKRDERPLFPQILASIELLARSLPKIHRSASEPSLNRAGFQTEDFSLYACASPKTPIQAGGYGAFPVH
Chain of ProfilerPro Kinase Selectivity Assay Kit kinases (Homo sapiens, UniProt Q13976) (Q13976 2-671 limits assumed): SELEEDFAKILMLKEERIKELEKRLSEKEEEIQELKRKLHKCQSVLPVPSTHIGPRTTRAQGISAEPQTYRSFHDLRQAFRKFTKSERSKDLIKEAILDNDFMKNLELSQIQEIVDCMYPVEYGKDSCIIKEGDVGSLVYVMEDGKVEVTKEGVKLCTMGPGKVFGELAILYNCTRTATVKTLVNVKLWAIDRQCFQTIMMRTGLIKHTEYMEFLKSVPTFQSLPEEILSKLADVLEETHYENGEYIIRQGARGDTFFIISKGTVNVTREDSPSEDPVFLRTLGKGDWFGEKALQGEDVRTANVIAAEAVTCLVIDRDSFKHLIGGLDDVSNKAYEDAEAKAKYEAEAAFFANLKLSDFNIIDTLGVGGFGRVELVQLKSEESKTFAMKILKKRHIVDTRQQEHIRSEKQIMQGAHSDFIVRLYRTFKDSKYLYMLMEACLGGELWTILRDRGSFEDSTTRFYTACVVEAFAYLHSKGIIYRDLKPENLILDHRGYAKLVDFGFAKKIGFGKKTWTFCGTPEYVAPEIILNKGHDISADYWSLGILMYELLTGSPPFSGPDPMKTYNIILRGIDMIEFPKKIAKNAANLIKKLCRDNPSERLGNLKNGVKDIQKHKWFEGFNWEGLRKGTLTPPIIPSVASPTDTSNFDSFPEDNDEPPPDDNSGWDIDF
Chain of ProfilerPro Kinase Selectivity Assay Kit kinases (Homo sapiens, UniProt Q16539) (Q16539 2-360 limits assumed): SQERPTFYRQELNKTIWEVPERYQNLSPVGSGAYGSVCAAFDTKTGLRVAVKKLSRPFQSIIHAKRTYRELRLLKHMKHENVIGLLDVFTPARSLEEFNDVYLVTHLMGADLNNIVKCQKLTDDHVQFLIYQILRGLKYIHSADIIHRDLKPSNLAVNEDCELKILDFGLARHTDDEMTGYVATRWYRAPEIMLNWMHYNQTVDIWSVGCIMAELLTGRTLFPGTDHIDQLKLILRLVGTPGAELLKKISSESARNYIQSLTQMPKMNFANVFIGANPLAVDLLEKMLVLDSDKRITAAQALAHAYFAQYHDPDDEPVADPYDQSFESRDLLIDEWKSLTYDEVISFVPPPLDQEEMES
Chain of ProfilerPro Kinase Selectivity Assay Kit kinases (Homo sapiens, UniProt P08581) (P08581 25-1390 limits assumed): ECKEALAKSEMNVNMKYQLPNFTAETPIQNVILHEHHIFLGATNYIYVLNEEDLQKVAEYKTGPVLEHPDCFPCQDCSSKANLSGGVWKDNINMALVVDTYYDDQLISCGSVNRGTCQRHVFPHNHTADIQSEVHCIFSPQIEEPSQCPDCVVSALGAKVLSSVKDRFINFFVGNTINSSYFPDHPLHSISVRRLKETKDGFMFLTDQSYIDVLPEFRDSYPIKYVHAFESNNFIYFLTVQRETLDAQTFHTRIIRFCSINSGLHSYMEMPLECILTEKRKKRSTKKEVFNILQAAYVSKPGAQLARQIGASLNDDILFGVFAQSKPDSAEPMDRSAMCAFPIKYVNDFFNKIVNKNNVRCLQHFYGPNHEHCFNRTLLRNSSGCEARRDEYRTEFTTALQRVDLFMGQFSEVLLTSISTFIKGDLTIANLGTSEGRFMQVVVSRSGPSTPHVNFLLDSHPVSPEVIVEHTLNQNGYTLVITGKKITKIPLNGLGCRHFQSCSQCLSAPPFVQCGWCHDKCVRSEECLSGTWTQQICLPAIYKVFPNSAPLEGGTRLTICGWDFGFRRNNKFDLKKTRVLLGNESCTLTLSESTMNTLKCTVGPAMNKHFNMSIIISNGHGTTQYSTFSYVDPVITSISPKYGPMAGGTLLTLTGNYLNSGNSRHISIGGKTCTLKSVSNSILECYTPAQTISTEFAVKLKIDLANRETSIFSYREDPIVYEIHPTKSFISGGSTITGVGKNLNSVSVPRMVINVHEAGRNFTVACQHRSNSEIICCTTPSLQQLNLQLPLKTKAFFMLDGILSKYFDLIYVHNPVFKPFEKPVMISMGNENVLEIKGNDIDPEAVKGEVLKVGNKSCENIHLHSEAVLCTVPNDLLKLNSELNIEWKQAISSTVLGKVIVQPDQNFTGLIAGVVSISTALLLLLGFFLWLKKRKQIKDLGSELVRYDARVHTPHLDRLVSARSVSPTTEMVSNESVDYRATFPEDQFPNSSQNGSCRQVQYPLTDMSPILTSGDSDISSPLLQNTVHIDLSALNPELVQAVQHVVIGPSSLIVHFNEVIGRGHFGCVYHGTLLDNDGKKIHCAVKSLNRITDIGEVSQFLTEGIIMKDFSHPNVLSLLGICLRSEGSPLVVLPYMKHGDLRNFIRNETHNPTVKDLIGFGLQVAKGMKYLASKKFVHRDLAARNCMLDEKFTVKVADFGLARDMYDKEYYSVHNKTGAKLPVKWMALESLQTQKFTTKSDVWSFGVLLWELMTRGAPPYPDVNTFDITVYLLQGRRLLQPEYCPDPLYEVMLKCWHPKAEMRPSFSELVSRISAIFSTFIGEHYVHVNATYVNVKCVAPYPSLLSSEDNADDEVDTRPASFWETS
Chain of ProfilerPro Kinase Selectivity Assay Kit kinases (Homo sapiens, UniProt P27361) (P27361 2-379 limits assumed): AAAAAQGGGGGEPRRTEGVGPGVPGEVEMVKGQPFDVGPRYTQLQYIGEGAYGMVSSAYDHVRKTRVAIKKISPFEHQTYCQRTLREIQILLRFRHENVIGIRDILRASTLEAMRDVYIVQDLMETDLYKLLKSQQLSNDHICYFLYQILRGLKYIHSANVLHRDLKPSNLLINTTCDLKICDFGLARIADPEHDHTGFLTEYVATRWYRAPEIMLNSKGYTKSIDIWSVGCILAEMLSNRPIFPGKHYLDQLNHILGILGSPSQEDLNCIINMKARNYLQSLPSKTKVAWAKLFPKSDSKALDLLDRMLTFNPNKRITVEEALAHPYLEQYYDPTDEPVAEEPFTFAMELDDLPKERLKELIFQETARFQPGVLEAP

SMILES	POC (Percent of control) SGK1 [1] [POC]	POC (Percent of control) MSK1 [2] [POC]	POC (Percent of control) ABL [3] [POC]	POC (Percent of control) cRAF [4] [POC]	POC (Percent of control) cMET [5] [POC]	POC (Percent of control) FGFR1 [6] [POC]	POC (Percent of control) p70S6K [7] [POC]	POC (Percent of control) ERK1 [8] [POC]	POC (Percent of control) GSK3 beta [9] [POC]	POC (Percent of control) PKGa2 [10] [POC]	POC (Percent of control) p38 alpha [11] [POC]	POC (Percent of control) PKD2 [12] [POC]	POC (Percent of control) AMPK [13] [POC]	POC (Percent of control) CAMK2 [13] [POC]	POC (Percent of control) PKC beta2 [13] [POC]	POC (Percent of control) TAK1 [13] [POC]	Mutant B-raf HTRF Assay POC Mean n = 2 [14]	Ki [15] [nM]	IC50 [16] [nM]
Cc1nc(N)nc(-c2cccnc2Nc2cccc3[nH]ccc23)n1 [Example 22, N-(3-(4-Amino-6-Methyl-1,3,5-Triazin-2-yl)Pyridin-2-yl)-1H-Indol-4-Amine]	99	103	103	98	106	96	74	99	94	93	101	99	92	118	96	99	118% of Control (POC)		
Cc1nc(N)nc(-c2cccnc2Nc2cccc(O)c2)n1 [Example 23, 3-(3-(4-Amino-6-Methyl-1,3,5-Triazin-2-yl)Pyridin-2-Ylamino)Phenol]	102	112	97	108	104	99	112	104	96	87	104	104	98	108	92	102	100% of Control (POC)		
COc1ccc(Nc2ncccc2-c2ncnc3[nH]cnc23)cn1 [Example 20, N-(6-Methoxypyridin-3-yl)-3-(9H-Purin-6-yl)Pyridin-2-Amine]	95	93	99	59	106	94	104	96	95	98	93	100	93	111	104	99	72% of Control (POC)		
Cc1nc(N)cc(-c2cccnc2Nc2cccc3[nH]ncc23)n1 [Example 27, N-(3-(6-Amino-2-Methylpyrimidin-4-yl)Pyridin-2-yl)-1H-Indazol-4-Amine]	85	94	104	95	95	94	91	100	80	90	104	102	83	116	166	102	110% of Control (POC)	130	
c1cnc(Nc2cccc3[nH]ncc23)c(-c2ncnc3[nH]cnc23)c1 [Example 18, N-(3-(9H-Purin-6-yl)Pyridin-2-yl)-1H-Indazol-4-Amine]	97	97	77	1	104	62	98	104	92	90	86	97	83	90	91	97	3% of Control (POC)	22600	

Second part, the compound after the results:

POC (Percent of control) SGK1 [1] [POC]	POC (Percent of control) MSK1 [2] [POC]	POC (Percent of control) ABL [3] [POC]	POC (Percent of control) cRAF [4] [POC]	POC (Percent of control) cMET [5] [POC]	POC (Percent of control) FGFR1 [6] [POC]	POC (Percent of control) p70S6K [7] [POC]	POC (Percent of control) ERK1 [8] [POC]	POC (Percent of control) GSK3 beta [9] [POC]	POC (Percent of control) PKGa2 [10] [POC]	POC (Percent of control) p38 alpha [11] [POC]	POC (Percent of control) PKD2 [12] [POC]	POC (Percent of control) AMPK [13] [POC]	POC (Percent of control) CAMK2 [13] [POC]	POC (Percent of control) PKC beta2 [13] [POC]	POC (Percent of control) TAK1 [13] [POC]	Mutant B-raf HTRF Assay POC Mean n = 2 [14]	Ki [15] [nM]	IC50 [16] [nM]	SMILES
92	101	94	100	100	95	94	100	101	98	100	97	92	109	97	97	87% of Control (POC)			Cc1nc(-c2cccnc2Nc2cccc3[nH]ncc23)c2nc[nH]c2n1 [Example 57, N-(3-(2-methyl-9H-purin-6-yl)pyridin-2-yl)-1H-indazol-4-amine]
97	98	99	99	103	94	98	101	101	97	98	92	99	103	161	107	97% of Control (POC)			COc1ccc(Nc2ncccc2-c2nc(C)nc3[nH]cnc23)cn1 [Example 58, N-(6-methoxypyridin-3-yl)-3-(2-methyl-9H-purin-6-yl)pyridin-2-amine]
96	101	95	100	94	100	109	101	96	98	92	87	102	95	100	115		2	28	COc1ccc(Nc2ncc(Cc3ccc(S(C)(=O)=O)cc3)cc2-c2nc(C)nc3[nH]cnc23)cn1 [Example 103, N-(6-methoxypyridin-3-yl)-3-(2-methyl-9H-purin-6-yl)-5-(4-(methylsulfonyl)benzyl)pyridin-2-amine]
